In patent US10408843B2, “Compositions and methods for detecting S-nitrosylation and S-sulfinylation” (The Regents of the University of Michigan, priority 2013, dated 2019):

System: S-nitrosylated proteins in mammalian cell lysates
Test: Gel-based labeling of endogenous S-nitrosylated proteins in cell lysates
Format: biochemical, human
Conditions: lysates denatured, alkylated with iodoacetamide; streptavidin detection
Procedure: FIG. 8. Dose-dependent labeling of S-nitrosylated proteins by biotin-SO2H. 293T and PANC1 cells were lysed in 6 M urea/PBS and alkylated with 50 mM iodoacetamide for 30 minutes, followed by incubation with increasing concentrations of biotin-SO2H for 45 minutes.
Next, the reactivity of sulfinic acids with native S-nitrosylated proteins was examined. Biotin and fluorescein N-hydroxysuccinimide (NHS) esters were directly coupled to the biological sulfinic acid metabolite hypotaurine (biotin-SO2H) or the sulfonic acid metabolite taurine (biotin-SO3H). Each probe was incubated with mammalian cell lysates pre-alkylated with excess iodoacetamide (FIG. 1b) in 6 M urea/phosphate buffered saline (PBS), and separated by non-reducing SDS-PAGE for transfer to nitrocellulose and streptavidin detection. […]
Cells and lysates were protected from light and kept on ice throughout the labeling protocol, except when noted. […] Lysate protein concentrations were quantified using the Bio-Rad DC assay, and diluted 3 mg/mL in 6 M urea/PBS. […] For in-gel fluorescence analysis, samples were loaded without boiling using non-reducing SDS-PAGE loading buffer for SDS-PAGE separation. […] In-gel fluorescence and streptavidin blots were analyzed using a GE typhoon scanner at appropriate wavelengths (488/526 for fluorescein and 633/670 for Cy5-Streptavidin).

SMILES: O=C(CCCC[C@@H]1SC[C@@H]2NC(=O)N[C@@H]21)NCCS(=O)O [biotin-SO2H, 2-(5-((3aS,4S,6aR)-2-oxohexahydro-1H-thieno[3,4-d]imidazol-4-yl)pentanamido)ethanesulfinic Acid]
- labeling of mammalian proteins: labels distinct mammalian proteins
